Assay results as given in PMC4947679, “Quantitative In Vitro and In Vivo Evaluation of Intestinal and Blood-Brain Barrier Transport Kinetics of the Plant N-Alkylamide Pellitorine” (BioMed Research International, 2016).

Assays:
[1] = In vitro metabolic stability; assay type: in vitro ADME; conditions: pH 7.4; one hour, 37°C; mouse serum, brain homogenate and liver homogenate
Experimental: The in vitro metabolic stability of pellitorine was evaluated in mouse brain and liver homogenates and mouse serum according to previously described protocols. Using the Pierce Modified Lowry Protein Assay method (Thermo Scientific), the protein content of each tissue homogenate was determined to prepare a stock solution containing a 0.6 mg/mL protein concentration in Krebs-Henseleit buffer (pH 7.4). […] After 0, 5, 7.5, 15, 60, and 120 min, aliquots of 100 μL were taken and transferred into 0.5 mL tubes (LoBind Eppendorf) containing 100 μL of 1% (V/V) TFA in water. Next, the samples were heated at 95°C for 5 min and subsequently cooled for 30 min in ice. Thereafter, the samples were centrifuged (20 000 ×g for 30 min at 5°C) and 25 μL of the clear supernatant was injected and analysed using a HPLC-UV/MS method of 46 min which was previously described. The HPLC-MS analysis was done on a HPLC system which consisted of a Spectra System SN4000 interface, a Spectra System SCM1000 degasser, a Spectra System P1000XR pump, a Spectra System AS3000 autosampler, and a Finnigan LCQ Classic ion trap mass spectrometer in positive ion mode (all from Thermo, San José, CA, USA) equipped with Waters 2487 Dual Absorbance detector and Xcalibur 2.0 software (Thermo) for data acquisition. Control solutions were also prepared but without pellitorine. […]

[2] = Brain-to-blood transport after intracerebroventricular injection in mice; assay type: in vivo, ICR-CD-1 mice
Experimental: To evaluate the efflux of pellitorine out of the brain into the blood, a previously described in vivo method was used. Briefly, the ICR-CD-1 mice were anesthetized with 40% (w/V) urethane solution (3 g/kg). Then, the skin of the skull was removed and a hole was made into the lateral ventricle using a 22 G needle marked with tape at 2 mm at the following coordinates: 1 mm lateral and 0.34 mm posterior to the bregma. Using a syringe pump (KDS100, KR analytical, Cheshire, UK), 1 μL of the 1.8 mg/mL pellitorine dose solution as used for the blood-to-brain influx experiment was injected intracerebroventriculary (ICV) at a speed of 360 μL/h for 10 s. […] Just before decapitation, blood was collected from the abdominal aorta and serum was obtained by centrifuging the blood at 10 000 ×g during 15 min at 21°C. Thereafter, brains were collected. The natural logarithm of the pellitorine concentration in brain (ng/g) was plotted versus time. The efflux rate constant k out (min^−1) is obtained from the negative value of the slope of the linear regression, applying first-order kinetics. From k out, the efflux brain half-life (t 1/2,brain) (min) is calculated as follows: t 1/2,brain = ln(2)/k out.

[3] = Oral gavage pharmacokinetic experiment with rats; assay type: in vivo, Wistar rats; conditions: rat
Experimental: Male and female Wistar rats weighing approximately 220 g were obtained from Bharat Serum and Vaccines Pvt. Ltd., Thane, India (registration number 103/99/CPCSEA) and were housed at CU Shah College of Pharmacy, SNDT Women's University, Santacruz, Mumbai, India (registration number 39/99/CPCSEA) where the experiments were carried out. Rats of 7-8 weeks of age were fasted overnight and used for the experiments.
A pellitorine dose solution was prepared using the Anacyclus pyrethrum extract. To the rats, 1.5 mL of a 0.73 mg pellitorine/g dose solution in 10 : 20 : 30 : 40 (w/w/w/w) EtOH : PG : Vit E-TPGS : PEG 400 was administered using a gavage needle (stainless steel, length of 3 inches, and 2.5 mm internal diameter). As blank, a solution containing EtOH, PG, Vit E-TPGS, and PEG without pellitorine was used. Each dose solution was orally administered to three female and three male rats. 1.5 mL blood was collected from the retro orbital vein at 1, 2, 3, 4, 6, and 8 h after administration of the dose solution and was centrifuged for 20 min at room temperature. Thereafter, the serum samples were immediately frozen at −80°C until bioanalysis. The animals were sacrificed at the end of the experiment by CO2 inhalation. Using GraphPad software (La Jolla, USA), the elimination rate constant k e (h^−1) is calculated using the following equation of a one-compartment model: C(t) = C 0 × e ^−ke×t, in which C(t) (ng/mL) is the concentration of pellitorine at time t (h) and C 0 the concentration of pellitorine at time t = 0 (ng/mL). The elimination half-life t 1/2,e (h) is calculated as ln(2)/k e.

[4] = parameters: method as in PMID 24055064; conditions: cited from earlier work

## CCCCC/C=C/C=C/C(=O)NCC(C)C [pellitorine, deca-2E,4E-dienoic acid isobutylamide]
[1]
  recovery at 1 h, 0.025 mg/mL: 91 to 105%
[2]
  efflux transfer constant k out: 0.05 min⁻¹
[2]; female, ICR-CD-1, mouse, icv or intrathecal, 1.8 μg/mouse, read-out: efflux brain half-life t 1/2,brain
  half-life: 0.23 h
[3]; both sexes, Wistar, serum, po, 5 mg pellitorine/kg, oral gavage, 5 mg pellitorine/kg (Anacyclus pyrethrum extract dose solution), one-compartment model, read-out: serum elimination rate constant k e (converted)
  k el: 8.33e-05 s⁻¹
[3]; both sexes, Wistar, serum, oral gavage, 5 mg pellitorine/kg, one-compartment model, read-out: elimination half-life t 1/2,e (converted)
  half-life: 2.46 h
[3]; oral administration of 5 mg pellitorine/kg
  maximum serum concentration: 26 ng/mL
[3]; oral gavage, 5 mg pellitorine/kg (Anacyclus pyrethrum extract dose solution), one-compartment model
  serum elimination rate constant k e: 0.28 h⁻¹
[4]
  log P: 3.65
